# Data taken from PMC5065130, “Functional Trade-Offs in Promiscuous Enzymes Cannot Be Explained by Intrinsic Mutational Robustness of the Native Activity” (PLoS Genetics, 2016).
# Target: T1, wtPTE (Brevundimonas diminuta, UniProt P0A434)
# T1 construct: gene opd; synthetic gene in pET-Strep vector, expressed in E. coli BL21 (DE3) with GroEL/ES, ZnCl2 in medium; clarified lysate
# Test: absorbance at […] nm, p-nitrophenolate release, initial rate in clarified lysate
# Assay type: biochemical
# Conditions: 180 uM substrate; Tris-HCl pH 7.5 lysis buffer, 0.1% Triton X-100; native activity
smiles,measurement,value
CCOP(=O)(OCC)Oc1ccc([N+](=O)[O-])cc1 [paraoxon],"absorbance at 405 nm, p-nitrophenolate release, initial rate in clarified lysate",wtPTE catalyzes the hydrolysis of paraoxon (PTE activity).
